In ChEMBL document CHEMBL1135703, “Synthesis and biological activity of a novel class of small molecular weight peptidomimetic competitive inhibitors of protein tyrosine phosphatase 1B” (2002):

Key:
[1] = biological target: T1, Tyrosine-protein phosphatase non-receptor type 1 (Rattus norvegicus) (UniProt P20417); assay: Percent inhibition of Protein-tyrosine phosphatase 1 (PTP) assayed at 100 uM
T1 sequence (whole entry): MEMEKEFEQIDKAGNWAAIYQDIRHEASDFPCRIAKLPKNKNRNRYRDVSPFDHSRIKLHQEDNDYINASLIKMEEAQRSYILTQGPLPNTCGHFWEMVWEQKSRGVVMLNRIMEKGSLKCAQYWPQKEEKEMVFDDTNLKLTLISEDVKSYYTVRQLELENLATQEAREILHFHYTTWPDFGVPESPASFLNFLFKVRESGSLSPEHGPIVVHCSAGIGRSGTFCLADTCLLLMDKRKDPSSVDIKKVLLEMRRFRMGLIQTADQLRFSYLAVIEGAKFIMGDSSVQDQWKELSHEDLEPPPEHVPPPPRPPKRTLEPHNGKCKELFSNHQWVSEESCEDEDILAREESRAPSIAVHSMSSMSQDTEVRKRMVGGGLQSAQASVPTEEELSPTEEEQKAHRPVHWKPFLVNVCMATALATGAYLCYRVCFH

[2] = biological target: Receptor-type tyrosine-protein phosphatase F (Homo sapiens) (UniProt P10586); assay: Percent inhibition of Protein-tyrosine phosphatase Lar assayed at 100 uM
[3] = biological target: T2, Tyrosine-protein phosphatase non-receptor type 11 (Mus musculus) (UniProt P35235); assay: Percent inhibition of Tyrosine phosphatase SHP2 SH2 domain containing PTP involved in insulin uM; design: concentration or dose not given beside the values; settings: concentration not given here
T2 sequence (whole entry): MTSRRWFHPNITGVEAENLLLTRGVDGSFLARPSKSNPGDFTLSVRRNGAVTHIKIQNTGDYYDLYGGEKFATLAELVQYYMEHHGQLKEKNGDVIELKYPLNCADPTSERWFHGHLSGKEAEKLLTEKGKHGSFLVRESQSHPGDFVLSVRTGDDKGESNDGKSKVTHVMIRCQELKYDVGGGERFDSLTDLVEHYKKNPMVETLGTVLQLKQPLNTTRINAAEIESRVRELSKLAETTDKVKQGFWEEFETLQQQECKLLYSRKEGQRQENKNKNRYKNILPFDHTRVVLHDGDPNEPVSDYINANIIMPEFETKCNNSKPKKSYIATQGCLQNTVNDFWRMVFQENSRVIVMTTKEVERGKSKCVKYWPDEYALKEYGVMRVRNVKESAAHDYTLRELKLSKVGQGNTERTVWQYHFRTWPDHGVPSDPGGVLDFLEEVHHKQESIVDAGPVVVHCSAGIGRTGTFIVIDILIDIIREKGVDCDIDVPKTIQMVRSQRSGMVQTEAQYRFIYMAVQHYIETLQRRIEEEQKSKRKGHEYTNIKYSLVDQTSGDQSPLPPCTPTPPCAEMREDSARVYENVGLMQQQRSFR

Chain of Receptor-type tyrosine-protein phosphatase F (Homo sapiens) (P10586 whole entry, the tested form may be a part): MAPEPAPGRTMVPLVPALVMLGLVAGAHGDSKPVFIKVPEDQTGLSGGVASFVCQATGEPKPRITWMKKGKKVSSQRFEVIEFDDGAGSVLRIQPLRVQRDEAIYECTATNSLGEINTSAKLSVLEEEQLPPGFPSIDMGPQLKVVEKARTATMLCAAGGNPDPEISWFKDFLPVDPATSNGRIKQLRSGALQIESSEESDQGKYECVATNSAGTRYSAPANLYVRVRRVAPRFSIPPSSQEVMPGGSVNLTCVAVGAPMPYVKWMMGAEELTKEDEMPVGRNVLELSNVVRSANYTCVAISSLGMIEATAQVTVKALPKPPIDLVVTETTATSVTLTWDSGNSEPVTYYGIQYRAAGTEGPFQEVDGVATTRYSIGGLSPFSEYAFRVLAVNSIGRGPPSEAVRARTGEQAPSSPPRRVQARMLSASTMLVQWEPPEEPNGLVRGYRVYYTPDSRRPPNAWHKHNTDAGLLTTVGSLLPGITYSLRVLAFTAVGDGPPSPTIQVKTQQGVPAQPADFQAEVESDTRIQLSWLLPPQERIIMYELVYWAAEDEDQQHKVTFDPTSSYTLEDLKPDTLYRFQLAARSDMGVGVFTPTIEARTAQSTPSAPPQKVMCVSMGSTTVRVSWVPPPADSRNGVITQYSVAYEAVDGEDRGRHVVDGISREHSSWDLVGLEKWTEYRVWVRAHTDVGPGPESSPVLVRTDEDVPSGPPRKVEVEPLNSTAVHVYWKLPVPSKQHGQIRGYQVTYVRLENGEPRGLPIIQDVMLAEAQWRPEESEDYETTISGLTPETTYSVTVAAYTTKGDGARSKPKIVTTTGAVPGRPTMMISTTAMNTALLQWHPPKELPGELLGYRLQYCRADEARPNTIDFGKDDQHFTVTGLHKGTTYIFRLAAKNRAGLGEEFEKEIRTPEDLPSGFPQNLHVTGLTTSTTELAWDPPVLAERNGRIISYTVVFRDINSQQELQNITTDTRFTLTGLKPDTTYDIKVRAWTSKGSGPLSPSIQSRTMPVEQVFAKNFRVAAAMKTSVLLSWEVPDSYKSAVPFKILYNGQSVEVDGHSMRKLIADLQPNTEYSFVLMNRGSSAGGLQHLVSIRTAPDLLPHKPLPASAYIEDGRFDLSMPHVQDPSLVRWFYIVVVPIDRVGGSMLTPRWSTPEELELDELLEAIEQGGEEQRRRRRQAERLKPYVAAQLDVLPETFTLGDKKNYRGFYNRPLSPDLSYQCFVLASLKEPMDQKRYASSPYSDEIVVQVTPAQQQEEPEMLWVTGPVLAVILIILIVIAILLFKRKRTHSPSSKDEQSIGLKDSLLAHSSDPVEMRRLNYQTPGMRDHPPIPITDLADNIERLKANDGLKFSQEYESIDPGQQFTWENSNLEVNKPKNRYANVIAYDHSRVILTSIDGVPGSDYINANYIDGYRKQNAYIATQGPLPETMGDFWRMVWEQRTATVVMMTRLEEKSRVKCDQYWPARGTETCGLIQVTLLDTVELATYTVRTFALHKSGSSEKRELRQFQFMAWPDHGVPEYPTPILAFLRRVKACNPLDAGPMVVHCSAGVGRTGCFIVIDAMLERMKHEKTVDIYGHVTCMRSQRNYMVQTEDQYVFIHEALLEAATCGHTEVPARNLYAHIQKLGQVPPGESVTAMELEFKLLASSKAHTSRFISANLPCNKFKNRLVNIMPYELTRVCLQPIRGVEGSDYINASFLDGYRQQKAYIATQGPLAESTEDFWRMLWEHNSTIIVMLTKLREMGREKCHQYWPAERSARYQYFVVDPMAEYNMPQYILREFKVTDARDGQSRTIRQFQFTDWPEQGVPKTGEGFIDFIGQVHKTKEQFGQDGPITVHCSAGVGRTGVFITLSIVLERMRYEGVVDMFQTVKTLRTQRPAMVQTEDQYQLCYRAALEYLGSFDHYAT

Row | Structure (SMILES) | inhibition [1] | inhibition [2] | inhibition [3]
1 | CCCCCNC(=O)C(Cc1ccc(OCC(=O)O)c(C(N)=O)c1)NC(=O)CCC(=O)O (stereo not given) | 11% | 0% | 1%
2 | CCCCCNC(=O)C(Cc1ccc(OC(C(=O)O)C(=O)O)cc1)NC(=O)[C@H]1CCCC[C@@H]1C(=O)O (stereo not given in full) | 72% | 7% | 10%
3 | CCCCCNC(=O)C(Cc1ccc(CC(C(=O)O)C(=O)O)cc1)NC(=O)CCC(=O)O (stereo not given) | 34% | 3% | 3%
4 | NS(=O)(=O)c1ccc(CCNC(=O)C(Cc2ccc(OC(C(=O)O)C(=O)O)cc2)NC(=O)CCC(=O)O)cc1 (stereo not given) | 63% | 5% | 17%
5 | CCCCCCCCCCNC(=O)C(Cc1ccc(OC(C(=O)O)C(=O)O)cc1)NC(=O)CCC(=O)O (stereo not given) | 51% | 4% | 9%
6 | CCCCCNC(=O)C(Cc1ccc(O)c(C(=O)O)c1)NC(=O)CCC(=O)O (stereo not given) | 0% | 0% | 3%
7 | O=C(O)CCC(=O)NC(Cc1ccc(OC(C(=O)O)C(=O)O)cc1)C(=O)NCCN1CCCCC1 (stereo not given) | 23% | – | 1%
8 | O=C(O)CCC(=O)NC(Cc1ccc(OC(C(=O)O)C(=O)O)cc1)C(=O)NCc1cccc2ccccc12 (stereo not given) | 61% | 10% | 12%
9 | O=C(O)CCC(=O)NC(Cc1ccc(OC(C(=O)O)C(=O)O)cc1)C(=O)NCCCN1CCOCC1 (stereo not given) | 35% | 0% | 2%
10 | CCCCCNC(=O)C(Cc1ccc(OC(C(=O)O)C(=O)O)c(F)c1F)NC(=O)CCC(=O)O (stereo not given) | 85% | 12% | 23%
11 | O=C(O)CCC(=O)NC(Cc1ccc(OC(C(=O)O)C(=O)O)cc1)C(=O)NCCC(c1ccccc1)c1ccccc1 (stereo not given) | 45% | 11% | 9%
12 | CCCCCNC(=O)C(Cc1ccc(OCC(=O)O)cc1)NC(=O)CCC(=O)O (stereo not given) | 14% | 0% | 0%
13 | O=C(O)CCC(=O)NC(Cc1ccc(OC(C(=O)O)C(=O)O)cc1)C(=O)NCc1ccc2c(c1)OCO2 (stereo not given) | 63% | 6% | 12%
14 | O=C(O)CCC(=O)NC(Cc1ccc(OC(C(=O)O)C(=O)O)cc1)C(=O)NCc1ccc(C(=O)O)cc1 (stereo not given) | 56% | 2% | 58%
15 | CCCCCNC(=O)C(Cc1ccc(OC(C(=O)O)C(=O)O)cc1)NC(=O)CC1(CC(=O)O)CCCC1 (stereo not given) | 72% | 9% | 18%
16 | CCCCCNC(=O)C(Cc1ccc(OC(C(=O)O)C(=O)O)c(F)c1)NC(=O)CCC(=O)O (stereo not given) | 78% | 4% | 9%
17 | CC(C)CC(CO)NC(=O)C(Cc1ccc(OC(C(=O)O)C(=O)O)cc1)NC(=O)CCC(=O)O (stereo not given) | 57% | 0% | 10%
18 | CCCCCNC(=O)C(Cc1ccc(OC(=O)CC(=O)O)cc1)NC(=O)CCC(=O)O (stereo not given) | 2% | – | 0%
19 | CCCCCNC(=O)C(Cc1ccc(C=C(C(=O)O)C(=O)O)cc1)NC(=O)CCC(=O)O (stereo not given) | 33% | 2% | 52%
20 | CCOC(CNC(=O)C(Cc1ccc(OC(C(=O)O)C(=O)O)cc1)NC(=O)CCC(=O)O)OCC (stereo not given) | 46% | 3% | 11%
21 | CCCCCNC(=O)C(Cc1ccc(O/C(=C/C(=O)O)C(=O)O)cc1)NC(=O)CCC(=O)O (stereo not given) | 50% | – | 5%
22 | O=C(O)CCC(=O)NC(Cc1ccc(OC(C(=O)O)C(=O)O)cc1)C(=O)NCC1CCCCC1 (stereo not given) | 73% | 5% | 12%
23 | CCCCCNC(=O)C(Cc1ccc(OC(C(=O)OCC)C(=O)OCC)cc1)NC(=O)CCC(=O)O (stereo not given) | 1% | – | 0%
24 | CCCCCNC(=O)C(Cc1ccc(OS(C)(=O)=O)cc1)NC(=O)CCC(=O)O (stereo not given) | 0% | – | –
25 | CCCCCNC(=O)C(Cc1ccc(OC(C(=O)O)C(=O)O)cc1)NC(=O)C1C2CCC(C2)[C@@H]1C(=O)O (stereo not given in full) | 37% | 8% | 5%
26 | CCCCCNC(=O)C(Cc1ccc(OS(=O)(=O)C(F)(F)F)cc1)NC(=O)CCC(=O)O (stereo not given) | 0% | – | –
27 | O=C(O)CCC(=O)NC(Cc1ccc(OC(C(=O)O)C(=O)O)cc1)C(=O)NCCc1ccc(O)cc1 (stereo not given) | 43% | – | –

Continued, values first:

Row | inhibition [1] | inhibition [2] | inhibition [3] | Structure (SMILES)
28 | 51% | – | – | CCCCCNC(=O)C(Cc1ccc(OC(C(=O)O)C(=O)O)cc1)NC(=O)CCC(N)=O (stereo not given)
29 | 39% | – | – | CCCCCNC(=O)C(Cc1ccc(OC(C(=O)O)C(=O)O)cc1)NC(=O)CCC(=O)OCc1ccccc1 (stereo not given)
30 | 98% | 28% | 33% | CCCCCNC(=O)C(Cc1ccc(OC(C(=O)O)C(=O)O)cc1)NC(=O)[C@H](Cc1ccc(OCc2ccccc2)cc1)NC(=O)CCC(=O)O (stereo not given in full)
31 | 53% | 5% | 8% | CCCCCNC(=O)C(Cc1ccc(OC(C(=O)O)C(=O)O)cc1)NC(=O)COCC(=O)O (stereo not given)
32 | 34% | – | 4% | CCCCCNC(=O)C(Cc1ccc(OC(CC(=O)O)C(=O)O)cc1)NC(=O)CCC(=O)O (stereo not given)
33 | 74% | 5% | 8% | CCCCCCNC(=O)C(Cc1ccc(OC(C(=O)O)C(=O)O)cc1)NC(=O)CCC(=O)O (stereo not given)
34 | 98% | 33% | 28% | CCCCCNC(=O)C(Cc1ccc(OC(C(=O)O)C(=O)O)cc1)NC(=O)[C@H](COc1ccc(Cc2cc(Cl)ccc2Cl)cc1)NC(=O)CCC(=O)O (stereo not given in full)
35 | 91% | 10% | 37% | CCCCCNC(=O)C(Cc1ccc(OC(C(=O)O)C(=O)O)cc1)NC(=O)[C@H](CC(=O)O)NC(=O)CCCCC (stereo not given in full)
36 | 90% | 6% | 50% | CCCCCNC(=O)C(Cc1ccc(OC(C(=O)O)C(=O)O)cc1)NC(=O)[C@H](CC(=O)O)NC(=O)OCc1ccccc1 (stereo not given in full)
37 | 90% | 10% | 12% | CCCCCNC(=O)C(Cc1ccc(OC(C(=O)O)C(=O)O)cc1)NC(=O)[C@H](CC(=O)O)NC(=O)OC(C)(C)C (stereo not given in full)
38 | 91% | 24% | 11% | CCCCCNC(=O)C(Cc1ccc(OC(C(=O)O)C(=O)O)cc1)NC(=O)[C@H](Cc1ccc(C(=O)c2ccccc2)cc1)NC(=O)OC(C)(C)C (stereo not given in full)
39 | 63% | 10% | 19% | CCCCCNC(=O)C(Cc1ccc(OC(C(=O)O)C(=O)O)cc1)NC(=O)c1ccccc1C(=O)O (stereo not given)
40 | 67% | 6% | 16% | CCCCCNC(=O)C(Cc1ccc(OC(C(=O)O)C(=O)O)cc1)NC(=O)CC(C)(C)CC(=O)O (stereo not given)
41 | 96% | 10% | 28% | CCCCCNC(=O)C(Cc1ccc(OC(C(=O)O)C(=O)O)cc1)NC(=O)[C@H](CCC(=O)O)NC(=O)CCC(=O)O (stereo not given in full)
42 | 93% | 4% | 48% | CCCCC(N)C(=O)NC(=O)C(Cc1ccc(OC(C(=O)O)C(=O)O)cc1)NC(=O)CCC(=O)O (stereo not given)
43 | 74% | 7% | 13% | CCCCCNC(=O)C(Cc1ccc(OC(C(=O)O)C(=O)O)cc1)NC(=O)CC(=O)O (stereo not given)
44 | 57% | 4% | 34% | O=C(O)CCC(=O)NC(Cc1ccc(OC(C(=O)O)C(=O)O)cc1)C(=O)NCCOc1ccccc1 (stereo not given)
45 | 67% | 7% | 10% | CCCCCNC(=O)C(Cc1ccc(OC(C(=O)O)C(=O)O)cc1)NC(=O)CCCC(=O)O (stereo not given)
46 | 54% | 6% | 11% | CCCCCNC(=O)[C@H](Cc1ccc(OC(C(=O)O)C(=O)O)cc1)NC(=O)[C@@H](Cc1ccc(C(=O)c2ccccc2)cc1)NC(=O)CCC(=O)O
47 | 39% | 1% | 4% | CCCCCNC(=O)[C@@H](Cc1ccc(OC(C(=O)O)C(=O)O)cc1)NC(=O)CCC(=O)O
48 | 83% | 11% | 14% | CCCCCNC(=O)C(Cc1ccc(OC(C(=O)O)C(=O)O)cc1)NC(=O)[C@H](CCC(=O)O)NC(=O)OC(C)(C)C (stereo not given in full)
49 | 98% | 22% | 33% | CCCCCNC(=O)C(Cc1ccc(OC(C(=O)O)C(=O)O)cc1)NC(=O)[C@H](Cc1ccc(OC)cc1)NC(=O)CCC(=O)O (stereo not given in full)
50 | 37% | 5% | 1% | CCCCNC(=O)C(Cc1ccc(OC(C(=O)O)C(=O)O)cc1)NC(=O)CCC(=O)O (stereo not given)
